The record followed here is ChEMBL document CHEMBL1132330 (J Med Chem, 1999).

For assay [1], the system named is Substance-K receptor (Mesocricetus auratus). The assay can be described thus: Efficacy towards hamster Tachykinin receptor 2 was determined.
Assay [2] concerns the target T1, Substance-K receptor (Homo sapiens, UniProt P21452).
T1 sequence (P21452 whole entry): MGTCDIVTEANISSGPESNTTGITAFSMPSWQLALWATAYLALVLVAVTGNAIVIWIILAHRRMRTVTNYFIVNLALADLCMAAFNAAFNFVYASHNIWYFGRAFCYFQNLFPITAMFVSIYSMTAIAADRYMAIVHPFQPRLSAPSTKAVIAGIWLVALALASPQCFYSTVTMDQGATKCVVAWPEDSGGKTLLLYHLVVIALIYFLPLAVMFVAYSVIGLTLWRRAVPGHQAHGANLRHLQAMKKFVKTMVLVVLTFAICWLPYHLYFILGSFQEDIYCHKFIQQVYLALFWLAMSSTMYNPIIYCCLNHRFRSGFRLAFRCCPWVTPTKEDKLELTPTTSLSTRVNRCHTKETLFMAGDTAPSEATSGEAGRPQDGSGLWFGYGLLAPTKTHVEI
Briefly: Inhibitory activity against human Tachykinin receptor 2.

The target in assay [3] is T1, Substance-K receptor. The assay can be described thus: The compound was tested for competition binding with [3H]NKA against the CHO cells from cloned human Tachykinin receptor 2. It counts as cell-based.

On to `CC(C)CC[C@H](NC(=O)[C@H](CC(C)C)NC(=O)CNC(=O)[C@@H](NC(=O)[C@H](Cc1ccc(Cl)cc1)NC(=O)[C@@H](NC(=O)[C@@H](N)CC(=O)O)[C@@H](C)O)C(C)C)C(N)=O`, for which the Efficacy in assay [1] was 97.8.
Same read-out and setting: the same measure for `CC(C)CC[C@H](NC(=O)[C@H](CC(C)C)NC(=O)CNC(=O)[C@@H](NC(=O)[C@H](Cc1ccc(F)cc1)NC(=O)[C@@H](NC(=O)[C@@H](N)CC(=O)O)[C@@H](C)O)C(C)C)C(N)=O`: 114.
Consider `CC(C)CC[C@H](NC(=O)[C@H](CC(C)C)NC(=O)CNC(=O)[C@@H](NC(=O)[C@H](Cc1ccccc1)NC(=O)[C@@H](NC(=O)[C@@H](N)CC(=O)O)[C@@H](C)O)C(C)C)C(N)=O`, for which the Efficacy in assay [1] is 116.
In assay [2], `CSCC[C@H](NC(=O)[C@H](CC(C)C)NC(=O)CNC(=O)[C@@H](NC(=O)[C@H](Cc1ccccc1)NC(=O)[C@H](Cc1ccccc1)NC(=O)[C@H](CC(=O)O)NC(=O)[C@H](Cc1c[nH]cn1)NC(=O)[C@H](CCSC)NC(=O)[C@@H](N)CC(=O)O)C(C)C)C(N)=O` [NEUROKININ B] showed an IC50 of 102 nM. The compound further showed a Ki in assay [3] of 42.2 nM.
